Drawing on patent US20250092036A1, “COMPOUNDS AND COMPOSITIONS FOR MODULATING THE ACTIVITY OF ERK” (Novartis AG, priority 2023, published 2025), this text covers AC50 for 17 molecules.

One test has as its system WM793 cells. Kind of test: Cell proliferation assay (CellTiter-Glo). Format: cell-based. Particulars: 3 d, read-out: Cell proliferation qualified AC50. The procedure:
(§1) Cancer cell media was prepared by adding 500 mL of RPMI (ThermoFisher cat ##22400-089) and 10% Fetal Bovine Serum (Gibco) for WM793 cells (ATCC Cat #CRL-2806, RRID: CVCL 8787) and F12K (Thermo Fisher cat #21127-022, 500 mL; or 21127-030, 10×500 mL)+10% FBS for PC3 (ATCC CRL-1435) cells. The entire media with supplements was filter sterilized through a 0.4 μm bottle top filter system. Cancer cell lines were detached from traditional cell culture flasks by washing three times with 1×PBS and adding an appropriate amount of 0.25% TrypLE™ Express Enzyme (1×), no phenol red (ThermoFisher cat #12604013) to create a thin layer over the cells. Trypsin was neutralized with media containing serum and proceeded to count the cells.
After counting the cells, the concentration of the cell solution was adjusted to seed a total of 750 cells per well in 50 μL of complete media into 384-well tissue culture treated plates. In a biological safety cabinet, cells were seeded using a sterilized small stainless steel tipped cassette on a Multi-drop Combi. Between different cell lines, the tubing of the cassette was flushed with 1× sterile PBS for 10 seconds. Alternatively, cells can be seeded using a Multi-flow located within a Hepa filtered robotics room using either a sterilized small sapphire jewel tipped cassette and the peristatic pump, or the attached syringe pump, depending on volume of plates per cell line needed. The plates were placed in an incubator set at 37° C., with 5% CO2 and 95% relative humidity. A 10-point, 3-fold serial dilutions of compounds in 100% DMSO was prepared on a liquid handling robot with a 10 mM top concentration. 100 nL/well in three assay plates/1 compound was dispensed to source plate, with the highest concentration at 20 μM. After addition of compound was complete, plates were placed into an incubator at 37° C., with 5% CO2 and 95% relative humidity for 3 d. An adequate volume of CellTiter-Glo® (Promega #G7571) detection reagent was pre-warmed to RT or in a 37° C. H2O bath. 25 μL of the reagent was added to each well using either a Multi-drop Combi or MultiFlo and incubate at RT for at least 15 min. Luminesce was captured on a plate luminometer such as an Envision or View Lux to measure Day 0 time point both select cell lines. LUM plus, gain 3500, 0.1 s and focal height 12.5 mm on PheraStar reader. At Day 3, an adequate volume of CellTiter-Glo® detection reagent was pre-warmed at RT or in a 37° C. H2O bath. A total of 25 μL of the reagent was added to each well using either a Multi-drop Combi or MultiFlo and incubate at RT for at least 15 min. Luminesce was captured on a plate luminometer such as an Envision or View Lux to measure Day 3 time point both select cell lines. LUM plus, gain 3500, 0.1 s and focal height 12.5 mm on PheraStar reader. Raw data was extracted from the instrument and all fields containing test compounds were normalized to the average of all wells containing DMSO alone from Day 3 as neutral control and Day 0 starting numbers. From this value, percent growth inhibition of each compound was calculated. Dose response curves and growth inhibitory IC50s were generated by graphing the normalized data values against the compound concentration using a program such as GraphPad™ or Excel Fit.
On the technique in general: Cellular ATP, detected with luciferase, serves as a proxy for viable cell number.

Test [1] has as its target T1, ERK2[2-360(p-T185/p-Y187)]-Avi (Homo sapiens, UniProt P28482).
T1 construct: 400 pM ERK2[2-360(p-T185/p-Y187)]-Avi was added to the plate
Kind of test: Biochemical assay (HTRF competition assay). It counts as binding. Particulars: HTRF competition with Example 15 probe, overnight at RT; read-out: Biochemical qualified AC50. How it is done:
The competition assays were performed at RT in a 384-well white polystyrene, flat bottom plate (Greiner #784075) using a final reaction volume of 15 μL and the following assay buffer conditions: 50 mM MOPS, pH 7.2, 10 mM MgCl2, 0.5 mM TCEP, 0.01% Triton-X-100. 75 nL of a 10 mM compound solution in DMSO or 100% DMSO (12 point titration, final concentration: 50 μM-300 pM; final DMSO: 0.5%) was added using an acoustic liquid handler (Echo, Beckman Coulter) to wells containing 7.5 μL of 1-(6-((R)-3-(1-(5-chloro-1-((tetrahydro-2H-pyran-4-yl)methyl)-1H-indole-3-carbonyl)-4-(4-fluorophenyl)piperidine-4-carboxamido)pyrrolidin-1-yl)-6-oxohexyl)-3,3-dimethyl-5-sulfo-2-((1E,3E)-5-((E)-1,3,3-trimethyl-5-sulfoindolin-2-ylidene)penta-1,3-dien-1-yl)-3H-indol-1-ium (Example 15); 7.5 μL 400 pM SA-Tb (Cisbio, 610SATLB) and 400 pM ERK2[2-360(p-T185/p-Y187)]-Avi was added to the plate and incubated overnight at RT. HTRF signal was measured using a microplate reader (PheraStar, BMG Labtech) with excitation and emission wavelengths of […], respectively. The inhibitor dose-response curves were analyzed from the HTRF ratio signal using normalized IC50 regression curve fitting with control-based normalization.

Test [2] concerns the target T2, nanobit-large-bit-ERK2 and nanobit-small-bit-PEA15 in WM793 cells (Homo sapiens, UniProt P28482).
T2 construct: expressed in transfected cells
Nature of the test: NanoBiT assay. It counts as cell-based. As to conditions: WM793 nanobit stable cell line, overnight incubation; read-out: NanoBiT qualified absolute AC50. The procedure:
as §1
A nanobit stable cell line was generated using WM793 cells with nanobit-large-bit-ERK2 and nanobit-small-bit-PEA15. […] In a biological safety cabinet, cells were seeded using a sterilized small stainless steel tipped cassette on a Multi-drop Combi. Between different cell lines, the tubing of the cassette was flushed with 1× sterile PBS for 10 s. Alternatively, cells can be seeded using a Multi-flow located within a Hepa filtered robotics room using either a sterilized small sapphire jewel tipped cassette and the peristatic pump, or the attached syringe pump, depending on volume of plates per cell line needed. The plates were placed in an incubator set at 37° C., with 5% CO2 and 95% relative humidity. A 10-point, 3-fold serial dilution of compounds was prepared in 100% DMSO on a liquid handling robot with a 10 mM top concentration. 90 nl/well was dispensed in three assay plates/1 compound source plate, with the highest concentration at 30 μM. After addition of compound was complete, the plates were placed into an incubator at 37° C., with 5% CO2 and 95% relative humidity for overnight. Luminescence was captured on a plate luminometer such as an Envision or View Lux to measure Day 0 time point both select cell lines. LUM plus, gain 3500, 0.1 s and focal height 12.5 [mm] on PheraStar reader. The raw data was extracted from the instrument and normalized all fields containing test compounds to the average of all wells containing DMSO alone as neutral control. From this value, the percent growth inhibition was calculated for each compound. Dose response curves and inhibitory IC50s were generated by graphing the normalized data values against the compound concentration using either a program such as GraphPad™ or Excel Fit.

Structures are written as SMILES. Read-outs that look alike come from different tables or passages of the source. Bounds are passed on as bounds.

T1 sequence (P28482 2-360 limits assumed): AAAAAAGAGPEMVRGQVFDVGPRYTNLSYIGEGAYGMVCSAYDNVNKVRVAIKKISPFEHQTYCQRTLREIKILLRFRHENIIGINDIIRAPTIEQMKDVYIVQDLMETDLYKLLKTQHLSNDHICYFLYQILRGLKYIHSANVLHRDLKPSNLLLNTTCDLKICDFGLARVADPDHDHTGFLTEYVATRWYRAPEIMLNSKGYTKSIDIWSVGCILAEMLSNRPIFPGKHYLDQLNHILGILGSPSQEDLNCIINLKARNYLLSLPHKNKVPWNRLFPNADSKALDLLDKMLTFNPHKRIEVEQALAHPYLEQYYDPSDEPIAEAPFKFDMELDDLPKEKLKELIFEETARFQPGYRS
T2 sequence (P28482 whole entry): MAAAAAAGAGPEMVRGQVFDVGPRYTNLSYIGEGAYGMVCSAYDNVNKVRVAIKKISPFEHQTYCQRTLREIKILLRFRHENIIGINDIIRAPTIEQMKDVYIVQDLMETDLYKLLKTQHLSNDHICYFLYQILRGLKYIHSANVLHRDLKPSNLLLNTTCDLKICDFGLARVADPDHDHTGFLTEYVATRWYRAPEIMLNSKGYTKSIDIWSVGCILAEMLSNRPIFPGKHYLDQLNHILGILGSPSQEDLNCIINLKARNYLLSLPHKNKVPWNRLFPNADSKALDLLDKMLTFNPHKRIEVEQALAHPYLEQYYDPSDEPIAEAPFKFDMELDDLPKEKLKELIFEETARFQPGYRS

With `CCO[C@H]1CC[C@H](Cc2c(C)n(C(=O)N3CC[C@@](C(=O)N[C@H]4CC[C@H](C(=O)O)C[C@@H]4C)(c4ccc(F)cc4)C[C@@H]3C)c3cc(F)ccc23)OC1` (mixture of isomers) [Example 8, (1S,3S,4S)-4-((2S,4S)-1-(3-((trans-5-ethoxytetrahydro-2H-pyran-2-yl)methyl)-6-fluoro-2-methyl-1H-indole-1-carbonyl)-4-(4-fluorophenyl)-2-methylpiperidine-4-carboxamido)-3-methylcyclohexane-1-carboxylic acid], the AC50 in the test with WM793 cells (Homo sapiens, WM793, 72 h) was 15 nM; in test [1], less than 0.28 nM; in test [2] it was 31 nM.
For `C[C@H]1C[C@@H](C(=O)O)CC[C@@H]1NC(=O)[C@@]1(c2ccc(F)cc2)CCN(C(=O)N2CC([C@H]3CC[C@H](OC4CCOCC4)CC3)c3ccc(F)cc32)[C@@H](C)C1` (single isomer, unassigned) [Example 4a] the same measures were 4 nM, 0.87 nM and 24 nM.
For `CC(C)O[C@H]1CC[C@H](C2CN(C(=O)N3CC[C@@](C(=O)N[C@H]4CC[C@H](C(=O)O)C[C@@H]4C)(c4ccc(F)cc4)C[C@@H]3C)c3cc(F)ccc32)CC1` (single isomer, unassigned) [Example 4c], in that order: 410 nM, 3.9 nM and 1200 nM.
Regarding `CCOC1CCC(Cc2c(C)n(C(=O)N3CC[C@@](C(=O)N[C@H]4CC[C@H](C(=O)O)C[C@@H]4C)(c4ccc(F)cc4)C[C@@H]3C)c3cc(F)ccc23)OC1` (single isomer, unassigned) [Example 8a], the AC50 was 13 nM with WM793 cells (Homo sapiens, WM793, 72 h); less than 0.28 nM in test [1]; 28 nM in test [2].
For `C[C@H]1C[C@@H](C(=O)O)CC[C@@H]1NC(=O)[C@@]1(c2ccc(F)cc2)CCN(C(=O)n2c3c(c4ccc(F)cc42)C(C2CCOCC2)OCC3)[C@@H](C)C1` (single isomer, unassigned) [Example 10] the same measures were 40 nM, less than 0.28 nM and 280 nM.
For `C[C@H]1C[C@@H](C(=O)O)CC[C@@H]1NC(=O)C1(c2ccc(F)cc2)CCN(C(=O)n2c3c(c4ccc(F)cc42)[C@H](c2ccccc2)OCC3)CC1` (single isomer, unassigned) [Example 10a], in that order: 77 nM, 0.35 nM and 88 nM.
For `C[C@H]1C[C@@H](C(=O)O)CC[C@@H]1NC(=O)C1(c2ccc(F)cc2)CCN(C(=O)n2c3c(c4ccc(F)cc42)[C@@H](c2ccccc2)OCC3)CC1` (single isomer, unassigned) [Example 10b], in that order: 10000 nM, 37 nM and 12000 nM.
In the case of `Cc1c(C[C@H]2CC[C@H](OC(C)C)CC2)c2ccc(F)cc2n1C(=O)N1CCC(C(=O)N[C@H]2CC[C@H](C(=O)O)C[C@@H]2C)(c2ccc(F)cc2)CC1` [Example 1, (1S,3S,4S)-4-(1-(6-fluoro-3-(((1r,4S)-4-isopropoxycyclohexyl)methyl)-2-methyl-1H-indole-1-carbonyl)-4-(4-fluorophenyl)piperidine-4-carboxamido)-3-methylcyclohexane-1-carboxylic acid], the AC50 came to 110 nM with WM793 cells, 0.33 nM in test [1] and 100 nM in test [2].
`CCc1c(C[C@H]2CC[C@H](OC3CCOCC3)CC2)c2ccc(F)cc2n1C(=O)N1CC[C@@](C(=O)N[C@H]2CC[C@H](C(=O)O)C[C@@H]2C)(c2ccc(F)c(F)c2)C[C@@H]1C` [Example 1a]: the AC50 with WM793 cells (Homo sapiens, WM793, 72 h) was 10 nM; in test [1], less than 0.28 nM; in test [2], 160 nM.
With `CN1CC[C@@H](NC(=O)C2(c3ccccc3)CCN(C(=O)c3c(C=O)n(CC4CCOCC4)c4ccc(Cl)cc34)CC2)C1` [Example 11a], the AC50 turned out to be 300 nM with WM793 cells (Homo sapiens, WM793, 72 h) and 0.87 nM in test [1].
Consider `C[C@H]1[C@@H](NC(=O)C2(c3ccc(F)cc3)CCN(C(=O)c3c(C=O)n(CC4CCOCC4)c4ccc(Cl)cc34)CC2)CN1C` [Example 11c], for which the AC50 with WM793 cells (Homo sapiens, WM793, 72 h) turned out to be 17 nM.
The same measure, in the same setting: the figure for `CN1CCC(NC(=O)C2(c3ccc(F)cc3)CCN(C(=O)c3c(C=O)n(CC4CCOCC4)c4ccc(Cl)cc34)CC2)CC1` [Example 11d] is 430 nM; for `CN1CC(NC(=O)C2(c3ccc(F)cc3)CCN(C(=O)c3c(C=O)n(CC4CCOCC4)c4ccc(Cl)cc34)CC2)C1` [Example 11e] it is 290 nM; for `CN1CC[C@@H](NC(=O)C2(c3ccc(F)cc3)CCN(C(=O)c3c(C=O)n(CC4CCOCC4)c4ccc(Cl)cc34)CC2)C1` [Example 11f] it is 140 nM.
Consider `CN1C[C@@H](F)[C@@H](NC(=O)C2(c3ccc(F)cc3)CCN(C(=O)c3c(C(F)F)n(CC4CCOCC4)c4ccc(Cl)cc34)CC2)C1` [Example 11i], for which the AC50 in the test on WM793 cells (Homo sapiens, WM793, 72 h) came to 54 nM; in test [1], 0.72 nM.
Regarding `CN1C[C@@H](F)[C@@H](NC(=O)C2(c3ccc(F)cc3)CCN(C(=O)c3c(C#N)n(CC4CCOCC4)c4ccc(Cl)cc34)CC2)C1` [Example 11j], the AC50 in the test on WM793 cells (Homo sapiens, WM793, 72 h) was determined as 730 nM; in test [1], 0.97 nM.
For `O=Cc1c(C(=O)N2CCC(C(=O)N[C@H]3CNC[C@H]3F)(c3ccc(F)cc3)CC2)c2cc(Cl)ccc2n1CC1CCOCC1` [Example 14, 1-(5-chloro-2-formyl-1-((tetrahydro-2H-pyran-4-yl)methyl)-1H-indole-3-carbonyl)-4-(4-fluorophenyl)-N-((3S,4R)-4-fluoropyrrolidin-3-yl)piperidine-4-carboxamide], in that order: 120 nM and 0.48 nM.
